According to US20260198498A1, “FUNGICIDAL COMPOSITIONS” (SYNGENTA CROP PROTECTION AG, priority 2022, published 2026):

How the values were obtained:
[1] = system: Mycosphaerella graminicola (Septoria tritici); assay: Example B21: Mycosphaerella graminicola (Septoria tritici)/Liquid Culture (Septoria Blotch); type: cell-based; details: Zymoseptoria tritici, liquid culture, photometrically 4-5 days after application, read-out: control of Mycosphaerella graminicola
Experimental: Example B21: Mycosphaerella graminicola (Septoria tritici)/Liquid Culture (Septoria Blotch)
Conidia of the fungus from cryogenic storage are directly mixed into nutrient broth (PDB potato dextrose broth). After placing a (DMSO) solution of test compound into a microtiter plate (96-well format), the nutrient broth containing the fungal spores is added. The test plates are incubated at 24° C. and the inhibition of growth is determined photometrically 4-5 days after application.

[2] = system: Monographella nivalis (Microdochium nivale); assay: Example B12: Monographella nivalis (Microdochium nivale)/Liquid Culture (Foot Rot Cereals); type: cell-based; details: liquid culture, photometrically 4 to 5 days after application, read-out: control of Monographella nivalis
Experimental: Example B12: Monographella nivalis (Microdochium nivale)/Liquid Culture (Foot Rot Cereals)
(§1) Conidia of the fungus from cryogenic storage are directly mixed into nutrient broth (PDB potato dextrose broth). After placing a (DMSO) solution of test compound into a microtiter plate (96-well format), the nutrient broth containing the fungal spores is added. The test plates are incubated at 24° C. and the inhibition of growth is determined photometrically 4 to 5 days after application.

[3] = system: Mycosphaerella arachidis (Cercospora arachidicola); assay: Example B13: Mycosphaerella arachidis (Cercospora arachidicola)/Liquid Culture (Early Leaf Spot); type: cell-based; details: liquid culture, photometrically 4 to 5 days after application, read-out: control of Mycosphaerella arachidis
Experimental: Example B13: Mycosphaerella arachidis (Cercospora arachidicola)/Liquid Culture (Early Leaf Spot)
as §1

[4] = system: Phaeosphaeria nodorum (Septoria nodorum); assay: Example B11: Phaeosphaeria nodorum (Septoria nodorum)/Wheat/Leaf Disc Preventative (Glume Blotch); type: in vivo; details: Parastagonospora nodorum, foliar, wheat leaf segments, inoculated 2 days after application
Experimental: Example B11: Phaeosphaeria nodorum (Septoria nodorum)/Wheat/Leaf Disc Preventative (Glume Blotch)
Wheat leaf segments cv. Kanzler are placed on agar in a multiwell plate (24-well format) and sprayed with the formulated test compound diluted in water. The leaf disks are inoculated with a spore suspension of the fungus 2 days after application. The inoculated test leaf disks are incubated at 20° C. and 75% rh under a light regime of 12 h light/12 h darkness in a climate cabinet and the activity of a compound is assessed as percent disease control compared to untreated when an appropriate level of disease damage appears in untreated check leaf disks (5-7 days after application).

[5] = system: Botryotinia fuckeliana (Botrytis cinerea); assay: Example B2: Botryotinia fuckeliana (Botrytis cinerea)/Liquid Culture (Gray Mould); type: cell-based; details: liquid culture, growth inhibition photometrically 3 to 4 days after application, read-out: control of Botryotinia fuckeliana
Experimental: Example B2: Botryotinia fuceliana (Botrytis cinerea)/Liquid Culture (Gray Mould)
Conidia of the fungus from cryogenic storage are directly mixed into nutrient broth (Vogels broth). After placing a (DMSO) solution of test compound into a microtiter plate (96-well format), the nutrient broth containing the fungal spores is added. The test plates are incubated at 24° C. and the inhibition of growth is determined photometrically 3 to 4 days after application.

[6] = system: Glomerella lagenarium (Colletotrichum lagenarium); assay: Example B5: Glomerella lagenarium (Colletotrichum lagenarium)/Liquid Culture (Anthracnose); type: cell-based; details: Colletotrichum orbiculare, liquid culture, photometrically 3 to 4 days after application, read-out: control of Glomerella lagenarium
Experimental: Example B5: Glomerella lagenarium (Colletotrichum lagenarium)/Liquid Culture (Anthracnose)
Conidia of the fungus from cryogenic storage are directly mixed into nutrient broth (PDB potato dextrose broth). After placing a (DMSO) solution of test compound into a microtiter plate (96-well format), the nutrient broth containing the fungal spores is added. The test plates are incubated at 24° C. and the inhibition of growth is measured photometrically 3 to 4 days after application.

Pyrenophora teres = assay: Example B18: Pyrenophora teres/Barley/Leaf Disc Preventative (Net Blotch); type: in vivo; details: foliar, barley leaf segments, inoculated 2 days after application
Experimental: Example B18: Pyrenophora teres/Barley/Leaf Disc Preventative (Net Blotch)
Barley leaf segments cv. Hasso are placed on agar in a multiwell plate (24-well format) and sprayed with the formulated test compound diluted in water. The leaf segments are inoculated with a spore suspension of the fungus 2 days after application. The inoculated leaf segments are incubated at 20° C. and 65% rh under a light regime of 12 h light/12 h darkness in a climate cabinet and the activity of a compound is assessed as disease control compared to untreated when an appropriate level of disease damage appears in untreated check leaf segments (5-7 days after application).

COC(=O)C1c2ccccc2C(c2cnn(C)c2)CN1C(=O)c1cc(-c2ccc(F)cc2F)on1 (stereo not drawn) [X.09, methyl 2-[5-(2,4-difluorophenyl)isoxazole-3-carbonyl]-4-(1-methylpyrazol-4-yl)-3,4-dihydro-1H-isoquinoline-1-carboxylate]
≥ 80%: inhibition of growth at 20 ppm [1] | inhibition of growth at 20 ppm [2] | inhibition of growth at 20 ppm [3] | pest or weed control at 200 ppm [4] | inhibition of growth at 20 ppm [5]

Cc1nn(C)c(C)c1C1CN(C(=O)c2cc(-c3ccc(F)cc3F)on2)Cc2ncccc21 (stereo not drawn) [X.15, [5-(2,4-difluorophenyl)isoxazol-3-yl]-[5-(1,3,5-trimethylpyrazol-4-yl)-6,8-dihydro-5H-1,7-naphthyridin-7-yl]methanone]
≥ 80%: inhibition of growth at 20 ppm [1] | inhibition of growth at 20 ppm [2] | inhibition of growth at 20 ppm [3] | inhibition of growth at 20 ppm [6] | pest or weed control at 200 ppm (Pyrenophora teres)

CC(=O)c1c(C2CN(C(=O)c3cc(-c4ccc(F)cc4F)on3)Cc3ccccc32)cnn1C (stereo not drawn) [X.08, 1-[4-[2-[5-(2,4-difluorophenyl)isoxazole-3-carbonyl]-3,4-dihydro-1H-isoquinolin-4-yl]-2-methyl-pyrazol-3-yl]ethanone]
≥ 80%: inhibition of growth at 20 ppm [1] | inhibition of growth at 20 ppm [2] | inhibition of growth at 20 ppm [3] | inhibition of growth at 20 ppm [6] | pest or weed control at 200 ppm (Pyrenophora teres)

Cn1cc(C2CN(C(=O)c3cc(-c4ccncc4)on3)Cc3ccccc32)cn1 (stereo not drawn) [X.23, [4-(1-methylpyrazol-4-yl)-3,4-dihydro-1H-isoquinolin-2-yl]-[5-(4-pyridyl)isoxazol-3-yl]methanone]
≥ 80%: inhibition of growth at 20 ppm [1]

Cn1cc(C2(C)CN(C(=O)c3cc(-c4ccc(F)cc4F)on3)Cc3ccccc32)cn1 (stereo not drawn) [X.14, [5-(2,4-difluorophenyl)isoxazol-3-yl]-[4-methyl-4-(1-methylpyrazol-4-yl)-1,3-dihydroisoquinolin-2-yl]methanone]
≥ 80%: inhibition of growth at 20 ppm [1] | inhibition of growth at 20 ppm [2] | inhibition of growth at 20 ppm [3] | pest or weed control at 200 ppm [4] | inhibition of growth at 20 ppm [6] | inhibition of growth at 20 ppm [5] | pest or weed control at 200 ppm (Pyrenophora teres)

CCCc1nnc(C(=O)N2Cc3ccccc3C(c3cnn(C)c3C)C2)s1 (stereo not drawn) [X.03, [4-(1,5-dimethylpyrazol-4-yl)-3,4-dihydro-1H-isoquinolin-2-yl]-(5-propyl-1,3,4-thiadiazol-2-yl)methanone]
≥ 80%: inhibition of growth at 20 ppm [1] | inhibition of growth at 20 ppm [3] | inhibition of growth at 20 ppm [6]

COc1ccc2c(c1)[C@@H](c1cnn(C)c1)CN(C(=O)c1cc(-c3ccc(F)cc3F)on1)[C@H]2C [X.05, [5-(2,4-difluorophenyl)isoxazol-3-yl]-[(1S,4S)-6-methoxy-1-methyl-4-(1-methylpyrazol-4-yl)-3,4-dihydro-1H-isoquinolin-2-yl]methanone]
≥ 80%: inhibition of growth at 20 ppm [1] | inhibition of growth at 20 ppm [2] | inhibition of growth at 20 ppm [3] | inhibition of growth at 20 ppm [5]

Cn1ncc(C2CN(C(=O)c3cc(-c4ccc(F)cc4F)on3)Cc3ccccc32)c1Cl (stereo not drawn) [X.11, [4-(5-chloro-1-methyl-pyrazol-4-yl)-3,4-dihydro-1H-isoquinolin-2-yl]-[5-(2,4-difluorophenyl)isoxazol-3-yl]methanone]
≥ 80%: inhibition of growth at 20 ppm [1] | inhibition of growth at 20 ppm [2] | inhibition of growth at 20 ppm [3] | pest or weed control at 200 ppm [4] | inhibition of growth at 20 ppm [6] | inhibition of growth at 20 ppm [5] | pest or weed control at 200 ppm (Pyrenophora teres)

Cc1c(C2CN(C(=O)c3nnc(C4CCCCC4)s3)Cc3ccccc32)cnn1C (stereo not drawn) [X.04, (5-cyclohexyl-1,3,4-thiadiazol-2-yl)-[4-(1,5-dimethylpyrazol-4-yl)-3,4-dihydro-1H-isoquinolin-2-yl]methanone]
≥ 80%: inhibition of growth at 20 ppm [1] | inhibition of growth at 20 ppm [2] | inhibition of growth at 20 ppm [3] | inhibition of growth at 20 ppm [6]

Cc1c(C2CN(C(=O)c3nnc(-c4ncc(F)cc4F)s3)Cc3ccccc32)cnn1C (stereo not drawn) [X.28, [5-(3,5-difluoro-2-pyridyl)-1,3,4-thiadiazol-2-yl]-[4-(1,5-dimethylpyrazol-4-yl)-3,4-dihydro-1H-isoquinolin-2-yl]methanone]
≥ 80%: inhibition of growth at 20 ppm [1] | inhibition of growth at 20 ppm [3] | pest or weed control at 200 ppm [4] | inhibition of growth at 20 ppm [6] | pest or weed control at 200 ppm (Pyrenophora teres)

Cn1cc(C2CN(C(=O)c3nnc(-c4ccccc4)o3)Cc3ccccc32)cn1 (stereo not drawn) [X.19, [4-(1-methylpyrazol-4-yl)-3,4-dihydro-1H-isoquinolin-2-yl]-(5-phenyl-1,3,4-oxadiazol-2-yl)methanone]
≥ 80%: inhibition of growth at 20 ppm [1] | inhibition of growth at 20 ppm [2] | inhibition of growth at 20 ppm [3] | inhibition of growth at 20 ppm [6] | inhibition of growth at 20 ppm [5]

Cn1cc(C2(C)CN(C(=O)c3nnc(-c4ccc(F)cc4F)s3)Cc3ccccc32)cn1 (stereo not drawn) [X.07, [5-(2,4-difluorophenyl)-1,3,4-thiadiazol-2-yl]-[4-methyl-4-(1-methylpyrazol-4-yl)-1,3-dihydroisoquinolin-2-yl]methanone]
≥ 80%: inhibition of growth at 20 ppm [1] | inhibition of growth at 20 ppm [2] | inhibition of growth at 20 ppm [3] | inhibition of growth at 20 ppm [6] | inhibition of growth at 20 ppm [5]

Cn1cc(C2CN(C(=O)c3nnc(-c4ccc(F)cc4)o3)Cc3ccccc32)cn1 (stereo not drawn) [X.10, [5-(4-fluorophenyl)-1,3,4-oxadiazol-2-yl]-[4-(1-methylpyrazol-4-yl)-3,4-dihydro-1H-isoquinolin-2-yl]methanone]
≥ 80%: inhibition of growth at 20 ppm [1] | inhibition of growth at 20 ppm [2] | pest or weed control at 200 ppm [4] | inhibition of growth at 20 ppm [6] | pest or weed control at 200 ppm (Pyrenophora teres)

Cn1cc(C2CN(C(=O)c3cc(C4CCCCC4)no3)Cc3ccccc32)cn1 (stereo not drawn) [X.18, (3-cyclohexylisoxazol-5-yl)-[4-(1-methylpyrazol-4-yl)-3,4-dihydro-1H-isoquinolin-2-yl]methanone]
≥ 80%: inhibition of growth at 20 ppm [1] | inhibition of growth at 20 ppm [2] | inhibition of growth at 20 ppm [3] | inhibition of growth at 20 ppm [6]

Cc1c(C2CN(C(=O)c3nnc(-c4ccc(F)cc4F)o3)Cc3ccccc32)cnn1C (stereo not drawn) [X.01, [5-(2,4-difluorophenyl)-1,3,4-oxadiazol-2-yl]-[4-(1,5-dimethylpyrazol-4-yl)-3,4-dihydro-1H-isoquinolin-2-yl]methanone]
≥ 80%: inhibition of growth at 20 ppm [1] | inhibition of growth at 20 ppm [2] | inhibition of growth at 20 ppm [6] | pest or weed control at 200 ppm (Pyrenophora teres)
